Laboratory results as given in article PMC12059914, “Discovery of Novel Allosteric Inhibitor Hits for Insulin-Regulated Aminopeptidase Provides Insights on Enzymatic Mechanism” (ACS Omega, 2025).
pEC50, pIC50: −log10 of the molar value.

Experiments:
Type in all cases: biochemical
[1] = target: T1, IRAP (insulin-regulated aminopeptidase) (Homo sapiens, UniProt Q9UIQ6); assay: HPLC vasopressin trimming, dose-response
T1 construct: gene LNPEP; extracellular (luminal) aminopeptidase domain; Rhodopsin 1D4 tag (given as N-terminal); secreted from stably transfected HEK 293S GnTI(-) cells; PDB ids are the docking structures

[2] = target: T2, ERAP2 (Homo sapiens, UniProt Q6P179); assay: fluorogenic Arg-AMC hydrolysis, dose-response
T2 construct: recombinant; Hi5 insect cells, baculovirus; Ni-NTA purified

[3] = target: T1, IRAP (insulin-regulated aminopeptidase); assay: fluorogenic Leu-AMC hydrolysis, dose-response
[4] = target: T3, ERAP1 (Homo sapiens, UniProt Q9NZ08); assay: fluorogenic Leu-AMC hydrolysis, dose-response
T3 construct: recombinant; Hi5 insect cells, baculovirus; Ni-NTA purified

[5] = target: T3, ERAP1; assay: fluorogenic Leu-AMC hydrolysis, dose-response; remark: listed apart in the source
[6] = target: T1, IRAP (insulin-regulated aminopeptidase); assay: Michaelis-Menten, fluorescence; settings: pH 7.0, 1 nM enzyme, no inhibitor

T1 sequence (Q9UIQ6 132-1025 limits assumed): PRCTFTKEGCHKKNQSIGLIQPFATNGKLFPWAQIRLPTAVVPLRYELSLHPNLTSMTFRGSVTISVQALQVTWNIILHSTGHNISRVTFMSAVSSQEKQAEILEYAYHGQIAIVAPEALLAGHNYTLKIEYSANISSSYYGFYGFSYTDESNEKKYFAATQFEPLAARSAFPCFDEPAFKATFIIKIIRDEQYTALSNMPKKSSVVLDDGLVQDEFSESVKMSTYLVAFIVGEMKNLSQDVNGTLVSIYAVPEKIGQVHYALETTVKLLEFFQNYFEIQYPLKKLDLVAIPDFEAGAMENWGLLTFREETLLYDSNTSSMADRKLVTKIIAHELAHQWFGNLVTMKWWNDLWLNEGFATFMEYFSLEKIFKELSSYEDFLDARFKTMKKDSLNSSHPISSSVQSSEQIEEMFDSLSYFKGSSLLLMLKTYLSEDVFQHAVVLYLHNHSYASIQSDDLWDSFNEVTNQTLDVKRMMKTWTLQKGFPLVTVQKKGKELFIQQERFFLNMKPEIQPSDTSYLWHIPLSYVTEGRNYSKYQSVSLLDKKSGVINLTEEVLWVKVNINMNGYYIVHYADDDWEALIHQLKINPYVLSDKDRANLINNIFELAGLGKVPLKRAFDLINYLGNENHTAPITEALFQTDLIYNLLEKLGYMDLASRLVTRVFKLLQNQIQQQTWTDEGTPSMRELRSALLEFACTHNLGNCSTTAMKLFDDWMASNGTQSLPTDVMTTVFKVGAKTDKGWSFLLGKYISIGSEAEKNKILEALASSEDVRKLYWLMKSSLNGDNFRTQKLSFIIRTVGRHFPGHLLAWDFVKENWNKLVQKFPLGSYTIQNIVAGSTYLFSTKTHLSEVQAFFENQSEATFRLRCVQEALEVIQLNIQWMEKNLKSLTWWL
T3 sequence (Q9NZ08 whole entry): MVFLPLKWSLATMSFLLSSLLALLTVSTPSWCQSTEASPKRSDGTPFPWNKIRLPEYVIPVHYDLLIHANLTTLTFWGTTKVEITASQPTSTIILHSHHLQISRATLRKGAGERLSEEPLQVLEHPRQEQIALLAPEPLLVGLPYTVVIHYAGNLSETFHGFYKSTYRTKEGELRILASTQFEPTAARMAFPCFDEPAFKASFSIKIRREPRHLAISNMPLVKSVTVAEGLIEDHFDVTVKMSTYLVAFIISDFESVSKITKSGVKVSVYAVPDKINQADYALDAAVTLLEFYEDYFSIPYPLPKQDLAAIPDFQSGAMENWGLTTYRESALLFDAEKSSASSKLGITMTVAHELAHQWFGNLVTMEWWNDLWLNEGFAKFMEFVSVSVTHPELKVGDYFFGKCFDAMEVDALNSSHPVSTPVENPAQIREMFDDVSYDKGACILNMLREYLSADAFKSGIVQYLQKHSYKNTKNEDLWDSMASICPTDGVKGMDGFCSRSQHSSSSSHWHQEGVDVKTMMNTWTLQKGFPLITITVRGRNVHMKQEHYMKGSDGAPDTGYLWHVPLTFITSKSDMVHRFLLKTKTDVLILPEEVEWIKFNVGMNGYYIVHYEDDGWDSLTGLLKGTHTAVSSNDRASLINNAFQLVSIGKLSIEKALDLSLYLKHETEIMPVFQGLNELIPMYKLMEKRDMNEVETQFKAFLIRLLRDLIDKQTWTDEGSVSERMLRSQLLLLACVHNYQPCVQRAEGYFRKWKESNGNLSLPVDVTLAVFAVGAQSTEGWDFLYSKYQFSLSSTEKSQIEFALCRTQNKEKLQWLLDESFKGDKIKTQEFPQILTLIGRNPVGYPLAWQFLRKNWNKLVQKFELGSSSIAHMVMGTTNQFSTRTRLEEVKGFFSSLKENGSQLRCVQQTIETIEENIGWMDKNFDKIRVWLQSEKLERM
T2 sequence (Q6P179 whole entry): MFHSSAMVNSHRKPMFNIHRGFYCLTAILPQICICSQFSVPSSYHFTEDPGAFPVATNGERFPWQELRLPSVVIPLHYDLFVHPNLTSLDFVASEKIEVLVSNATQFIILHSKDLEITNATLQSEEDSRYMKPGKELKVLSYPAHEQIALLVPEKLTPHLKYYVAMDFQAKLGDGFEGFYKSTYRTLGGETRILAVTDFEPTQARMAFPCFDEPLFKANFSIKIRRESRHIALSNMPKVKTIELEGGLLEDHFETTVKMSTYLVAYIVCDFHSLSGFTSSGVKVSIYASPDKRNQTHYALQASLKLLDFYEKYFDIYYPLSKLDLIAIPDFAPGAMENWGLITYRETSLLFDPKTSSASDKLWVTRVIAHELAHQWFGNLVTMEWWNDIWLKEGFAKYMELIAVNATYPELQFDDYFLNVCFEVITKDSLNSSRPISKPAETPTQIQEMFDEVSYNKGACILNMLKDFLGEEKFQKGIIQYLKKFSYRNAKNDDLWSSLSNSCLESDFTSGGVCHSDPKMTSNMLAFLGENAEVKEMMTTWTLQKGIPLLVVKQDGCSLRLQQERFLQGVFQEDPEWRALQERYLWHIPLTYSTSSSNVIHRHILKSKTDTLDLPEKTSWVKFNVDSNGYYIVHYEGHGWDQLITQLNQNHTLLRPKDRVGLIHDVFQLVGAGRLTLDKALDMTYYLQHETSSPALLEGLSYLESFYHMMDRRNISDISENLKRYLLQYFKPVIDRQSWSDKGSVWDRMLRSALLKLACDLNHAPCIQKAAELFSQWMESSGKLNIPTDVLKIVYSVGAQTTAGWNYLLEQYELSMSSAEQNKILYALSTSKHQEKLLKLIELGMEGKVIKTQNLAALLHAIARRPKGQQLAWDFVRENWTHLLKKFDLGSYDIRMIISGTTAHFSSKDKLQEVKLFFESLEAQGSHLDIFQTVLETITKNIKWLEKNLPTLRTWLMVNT

Row | SMILES | pIC50 [1] | pIC50 [2] | pIC50 [3] | pIC50 [4] | pEC50 [5] | KM [6]
1 | O=C(O)C1(CF)CCN(Cc2cc3c(Br)cc(F)cc3[nH]2)C1 (racemic) [compound 2] | 3.55 |  |  |  |  | 
2 | O=C(O)c1cc(CN2CCCCC2CCCc2ccccc2)[nH]n1 (racemic) [compound 8] |  | < 2.00 | 4.52 | < 3.52 |  | 
3 | NCc1cc(C(=O)NC(Cc2ccccc2Cl)c2ccccc2)n[nH]1 (racemic) [compound 11] |  | 2.89 | 3.90 |  | ~3.35 | 
4 | Cc1ccc(CC(C)(CO)NC(=O)c2cc(-c3c[nH]c4ccccc34)[nH]n2)cc1 (racemic) [compound 17] |  | 2.44 | 3.68 | < 3.52 |  | 
5 | Cc1cc(=O)oc2cc(NC(=O)[C@@H](N)CC(C)C)ccc12 [Leu-AMC] |  |  |  |  |  | Michaelis–Menten analysis of (A, B) Leu-AMC substrate digestion by IRAP
